Measured values: patent US20210205329A1 (The University of North Carolina at Chapel Hill, priority 2018, published 2021)
Several values for one entry are separate records, joined by “and”; a condition that tells them apart may be missing. Identical values can stand only once.

Assays:
[1] = 3α,5α-THP radioimmunoassay of RAW264.7 cell culture media (conversion of pregnenolone); format: in vitro ADME, mouse
Description: 3α,5α-THP Radioimmunoassay (RIA), 3α,5α-THP concentrations in the RAW264.7 cell media were measured by radioimmunoassay as described elsewhere (VanDoren et al, 2000), modified for use with cell media (Cook et al, 2014), Briefly, 3α,5α-THP was extracted from ceil media three times with 3 ml of ethyl acetate and spiked with 1000 counts per minute of [^3H]3α,5α-THP for recovery. The extracts were purified using solid phase silica columns (Burdick and Jackson, Muskegon, Mich.) and used for the assay (run in duplicate) and for recovery measurement. Steroid levels in the samples were extrapolated from a concurrently run standard curve and corrected for their respective extraction efficiencies. The 3α,5α-THP antibody (1:500) was provided by the late Dr. Robert Purdy at Scripps Research Institute. […] The validity of the assay has been verified by gas chromatography mass spectrometry determinations (Porcu et al, 2010), 3α,5α-THP values are expressed as ng/ml of cell media.
Since pregnenolone is a precursor for 3α,5α-THP, the possibility that pregnenolone may have been converted in the RAW264.7 cells was considered by analysis of 3α,5α-THP levels in the cell culture media at the time of cell harvest, 3α,5α-THP was detected at less than 0.69±0.11 nmol/L, indicative of less than 0.1% conversion of 1.0 μM pregnenolone.

MCP-1 = MCP-1 ELISA in P rat NAc; format: in vivo; details: 15 mg/kg I.P., 45 min
Description: (§1) ELISA. Brain tissue micropunches were lysed with Cellyte MT and the extracts were assayed for protein content by the BCA procedure (Pierce) and for MCP-1 using the rat MCP-1 ELISA kit (Raybiotech—ERC-MCP-1-CL; Norcross, Ga., USA) or for fracktalkine using the rat fractalkine ELISA kit (Raybiotech—ERC-CX3CL1-CL; Norcross, Ga., USA) as per manufacturer's instructions.
(§2) Next, potential sex differences were directly examined in baseline or 3α,5α-THP inhibition of MCP-1 and pIRF7 expression in female vs. male P rat NAc (FIG. 9). […] Systemic administration of 3α,5α-THP (15 mg/kg, I.P.) to naïve female and male P rats inhibited the expression of MCP-1 (40% in female rat NAc; 25% in male rat NAc). Likewise, 3α,5α-THP administration to naïve female and male P rats inhibited the expression of pIRF7 to the same extent, (55% in female rat NAc; 55% in male rat NAc).

CX3CL1 [2] = assay: CX3CL1 expression in human macrophages; format: cell-based; details: 1 μM
TLR3 signal = assay: Poly(I:C)-activated TLR3 signaling in RAW264.7 cells; format: cell-based, mouse; details: 1 μM; Poly-IC 25 μg/ml; 24 hrs
CX3CL1 [3] = assay: CX3CL1 (fracktalkine) ELISA in P rat NAc; format: in vivo; details: 15 mg/kg IP, 45 min
Description: Rats were administered VEH or 3α,5α-THP (15 mg/kg, IP) and sacrificed after 45 min. CX3CL1 was measured by ELISA (Raybiotech—ERC-CX3CL1-CL; Norcross, Ga., USA) as per manufacturer's instructions. (Two-way ANOVA: F (1,28)=13.63, P<0.001, Tukey's multiple comparisons test *P<0.05).
as §1
Activation of TLR4 signaling can result in the production of both pro-inflammatory and anti-inflammatory cytokines in P rat brain, but the factors that determine the outcome of TLR4 activation are unknown. […] 3α,5α-THP administration to naïve female and male P rats enhanced the expression of CX3CL1 by 90% in female rat NAc and 34% in male rat NAc. No sex difference in the effect of 3α,5α-THP was observed.

TLR7 signal in P rat NAc = TLR7 signal in P rat NAc after systemic 3α,5α-THP (immunoblot); format: in vivo; details: 15 mg/kg I.P.
Description: Neuropsychopharmacology 40(8): 1549-1559; Aurelian L, et al. (2016). Transl Psychiatry 6: e815). Systemic administration of 3α,5α-THP (15 mg/kg, I.P.) to naïve female P rats inhibited the expression of TLR7 (40%), pIRF7 (40%), and TRAF6 (40%) in P rat NAc, with no effect on IRF3. Similar results were obtained in a separate study of the male P rats.
as §2

Row | SMILES | conversion of pregnenolone to 3α,5α-THP ([1]; 1.0 μM pregnenolone, RAW264.7 cells) | 3α,5α-THP level in the cell culture media at the time of cell harvest ([1]; RAW264.7 cells treated with 1.0 μM pregnenolone) | inhibition of MCP-1 expression in NAc (MCP-1; naïve female P rats) | inhibition of MCP-1 expression in NAc (MCP-1; naïve male P rats) | expression of the anti-inflammatory cytokine CX3CL1 (CX3CL1 [2]) | effect of Poly(I:C) on IP-10 (CXCL10) expression (TLR3 signal) | enhancement of CX3CL1 expression in NAc (CX3CL1 [3]; naïve female P rats) | enhancement of CX3CL1 expression in NAc (CX3CL1 [3]; naïve male P rats) | inhibition of TRAF6 (TLR7 signal in P rat NAc; male P rats) | effect on IRF3 in NAc (TLR7 signal in P rat NAc; naïve female P rats) | inhibition of TLR7 expression in NAc (TLR7 signal in P rat NAc; naïve female P rats) | inhibition of TRAF6 expression in NAc (TLR7 signal in P rat NAc; naïve female P rats) | inhibition of pIRF7 expression in NAc (TLR7 signal in P rat NAc; naïve female P rats) | inhibition of pIRF7 expression in NAc (TLR7 signal in P rat NAc; naïve male P rats)
1 | CC(=O)[C@H]1CC[C@H]2[C@@H]3CC=C4C[C@@H](O)CC[C@]4(C)[C@H]3CC[C@]12C [pregnenolone] | less than 0.1% | less than 0.69±0.11 nmol/L | – | – | – | – | – | – | – | – | – | – | – | –
2 | CC(=O)[C@H]1CC[C@H]2[C@@H]3CC[C@H]4C[C@H](O)CC[C@]4(C)[C@H]3CC[C@]12C [3α,5α-THP, (3α,5α)3-hydroxypregnan-20-one] | – | – | 40% | 25% | increases expression | not altered | 90% | 34% | 45% | no effect | 40% | 40% | 40% and 55% | 55%
